Where a name gives a salt, the structure may show the parent alone.
Key:
[1] = system: 18C-18R duplex (RNase H substrate of HIV-1 RT); test: RT-induced RNase H cleavage of the 18C-18R duplex (gel assay); assay type: biochemical; conditions: 18C-18R duplex; aminoglycosides 312.5 μM; FIG. 1b, 1d
From the text: The first model oligonucleotide was a 18mer chimeric duplex (18C-18R). 18C-18R mimics a RNase H substrate during minus-strand strong-stop synthesis. (FIG. 1a). Mueller, U. et al. Crystal structure of an eight-base pair duplex containing the 3′-DNA RNA-5′ junction formed during initiation of minus-strand synthesis of HIV replication, Biochemistry 37,12005-12011 (1998). […] Note that RT cleaves the RNA strand (18R) opposite the chimeric RNA-DNA strand (18C) at three sites (FIGS. 1a, b). The primary cleavage site lies between base positions +1 and +2 (counting from the RNA-DNA junction in the 5′ direction on the cleaved RNA strand). Two other minor cleavage sites lie between positions +3 and +4 and between positions −1 and +1, with the former site being cleaved to a greater extent than the latter site. Götte, M. et al., HIV-1 Reverse transcriptase-associated RNase H cleaves RNA/RNA in arrested complexes: Implications for the mechanism by which RNase H discriminates between RNA/RNA and RNA/DNA, EMBO J. 14, 833-841 (1995).
(§1) Recombinant HIV-1 RT p66 was isolated from Escherichia coli JM 109. Pandey, V. N. et al, Role of methionine 184 of human immunodeficiency virus type-1 reverse transcriptase in the polymerase function and fidelity of DNA synthesis, Biochemistry 35, 2168-2179 (1996). The 18C and 18R oligonucleotides were purchased from Dharmacon Research, Inc. (Lafayette, Colo.). The 18D oligonucleotide was obtained from Integrated DNA Technologies, Inc. (Coralville, Iowa). Neomycin trisulfate trihydrate, the free base of tobramycin, paromomycin sulfate, and kanamycin B sulfate were obtained from Fluka, while kanamycin A monosulfate and ribostamycin sulfate dihydrate were obtained from Sigma.
(§2) The RNase H activity of RT was assayed in a 10 μl reaction mixture containing 10 mM PIPES (pH 6.0) and 5 mM MgCl2. Ten pmol of either 18C or 18R were ^32P-labeled at the 5′ end using T4 polynucleotide kinase. For the cleavage experiments, different aminoglycosides were mixed with 0.5 μM of target duplex. A small amount of RT, 0.1 μg, was then added to initiate the cleavage reaction. After incubation at 37° C. for 30 min, the reaction was stopped by addition of 3 M urea containing a mixture of bromophenol blue and xylene cyanol. Denaturation of the 18C-18R duplex required the addition of 5 M urea as well as heating at 95° C. for 5 min prior to gel loading. The cleavage products were resolved in a 10% polyacrylamide gel containing 8 M urea. The gels were subsequently analyzed using a phosphoimager (Molecular Dynamics, Inc.).

[2] = system: 18C-18D duplex (RNase H substrate of HIV-1 RT); test: RT-induced RNase H cleavage of the 18C-18D duplex (gel assay); assay type: biochemical; conditions: 18C-18D duplex; aminoglycosides 2.0 mM; FIG. 2b, 2c
From the text: The second model oligonucleotide was a 18mer chimeric duplex (18C-18D). 18C-18D mimics a RNase H substrate during plus-strand strong-stop synthesis (FIG. 2a), which occurs following minus-strand DNA synthesis. Fedoroff, O. Y., et. al., B. R. Structural variation among retroviral primer-DNA junctions: Solution structure of the HIV-1 (−)-strand Okazaki fragment r(gcca)d(CTGC)-d(GCAGTGGC), Biochemistry 35,11070-11080 (1996). For the 18C-18D duplex, RT cleaves the RNA portion of the chimeric strand (18C) opposite the DNA strand (18D) at only a single site (FIGS. 2a, b), in marked contrast to the three cleavage sites observed in the 18C-18Rduplex. This unique cleavage site lies between base positions +1 and +2 (counting from the RNA-DNA junction in the 5′ direction on the cleaved chimeric strand). Furfine, E. S. & Reardon, J. E., Human immunodeficiency virus reverse transcriptase ribonuclease H: Specificity of tRNA(Lys3)-primer excision, Biochemistry 30, 7041-7046 (1991); Smith, J. S. & Roth, M. J. Specificity of human immunodeficiency virus-1 reverse transcriptase-associated ribonuclease H in removal of the minus-strand primer tRNA(Lys3), J. Biol. Chem. 267, 15071-15079 (1992). […] As noted above for the 18C-18R duplex, this hierarchy of cleavage inhibition correlates with the relative binding affinities of the three ligands for the 18C-18D duplex.
as §1
as §2, with “containing 110” for “containing 10”
To determine the nature of the aminoglycoside-induced inhibition of RT-catalyzed RNase H cleavage, the impact of RT concentration on neomycin-induced inhibition was examined. […] In the presence of 1 mM neomycin, increasing the concentrations of RT overcomes the RNase H inhibitory effect of the drug.

Row | SMILES | hierarchy of the extent of inhibition of RT-induced cleavage [1] | hierarchy of inhibition of RT-induced cleavage [2]
1 | NC[C@H]1O[C@H](O[C@H]2[C@H](O)[C@@H](O[C@H]3O[C@H](CO)[C@@H](O)[C@H](N)[C@H]3O)[C@H](N)C[C@@H]2N)[C@H](O)[C@@H](O)[C@@H]1O.O=S(=O)(O)O [kanamycin A, kanamycin A monosulfate] | neomycin>paromomycin>tobramycin>kanamycin B>ribostamycin>>kanamycin A | –
2 | NC[C@H]1O[C@H](O[C@H]2[C@H](O)[C@@H](O[C@H]3O[C@H](CO)[C@@H](O)[C@H](N)[C@H]3O)[C@H](N)C[C@@H]2N)[C@H](N)[C@@H](O)[C@@H]1O.O=S(=O)(O)O [kanamycin B, kanamycin B sulfate] | neomycin>paromomycin>tobramycin>kanamycin B>ribostamycin>>kanamycin A | –
3 | NC[C@H]1O[C@H](O[C@H]2[C@H](O[C@@H]3O[C@H](CO)[C@@H](O)[C@H]3O)[C@@H](O)[C@H](N)C[C@@H]2N)[C@H](N)[C@@H](O)[C@@H]1O [ribostamycin, ribostamycin sulfate dihydrate] | neomycin>paromomycin>tobramycin>kanamycin B>ribostamycin>>kanamycin A | neomycin>paromomycin>ribostamycin
4 | NC[C@H]1O[C@H](O[C@H]2[C@H](O)[C@@H](O[C@H]3O[C@H](CO)[C@@H](O)[C@H](N)[C@H]3O)[C@H](N)C[C@@H]2N)[C@H](N)C[C@@H]1O [tobramycin] | neomycin>paromomycin>tobramycin>kanamycin B>ribostamycin>>kanamycin A | –
